Patent US8143254B2, “Methods for modulating ion channels” (Cornell Research Foundation, Inc., priority 2005, dated 2012)

Columns and labels:
Kv2.1 = target: T1, Kv2.1 (Rattus norvegicus, UniProt P15387); assay: Two-electrode voltage clamp (TEVC) of Xenopus oocytes expressing Kv2.1, bath-applied compound; type: cell-based; conditions: for effect on Kv2.1 currents: 1 mM, bath applied
T1 construct: expressed in transfected cells; host or cells: Xenopus laevis oocytes (cRNA injection, pGA1 vector)
Text: The ion channel subunit genes are in expression vectors that facilitate in vitro transcription of channel cRNA using the Ambion mMessage mMachine in vitro transcription kit. cDNA constructs are column-purified, linearized with the appropriate restriction enzyme that cuts a single site following the polyA tail, then purified by precipitation and transcribed in vitro using a promoter, such as T7, T3 and SP6. Transcribed cRNA is purified by precipitation and resuspended in RNAse-free water ready for injection. Each transcription can provide enough cRNA for several months of experiments.
Stage V-VI Xenopus oocytes are separated into small groups using forceps, defolliculated by agitation in Ca^2+-free Ringer solution containing collagenase for one hour, washed, then stored at 15° C. in full Ringers solution before injection. cRNA sufficient to give 1-10 μA of current at physiological voltages for each channel type is injected into Xenopus oocytes (selected by appearance for overall health and uniformity of color) using a Sutter manual injector (typically 0.1-5 ng cRNA in a volume of 25-50 nl). The oocytes are then stored for 1-3 days at 15° C. before TEVC recording. Beta subunit cRNA is co-injected as appropriate, typically 2 ng per oocyte.
Whole cell oocyte experiments are performed using a Warner OC-725C amplifier and pClamp9 software with oocytes bathed in a small-volume Warner oocyte bath and viewed with a Fisher dissection microscope. Bath solution for whole cell oocyte recordings, e.g., for potassium channel analysis, is generally (in mM): 96 NaCl, 4 KCl, 1 MgCl2, 0.3 CaCl2, 10 HEPES (Ph 7.4); whole-cell oocyte TEVC pipettes are filled with 3 M KCl. Oocyte patches are studies using an Axon Instruments small-volume bath, viewed with an Olympus IX50 inverted microscope, and recordings made using an Axon Multiclamp 700 A Amplifier and pCLAMP9 software (Axon Instruments). Extracellular solution, e.g., for potassium channel analysis, is generally (in mM): 135 NaCl, 5 KCl, 1.2 MgCl2, 5 HEPES, 2.5 CaCl2, 10 D-glucose (Ph 7.4). Intracellular solution, e.g., for potassium channel analysis, is generally (in mM): 10 NaCl, 117 KCl, 2 MgCl2, 11 HEPES, 11 EGTA, ICaCl2 (Ph 7.2). Patch pipettes are approximately 3-5 MΩ resistance when filled with recording solution.
Quantitative aspects of ion action on ion channels are compared using standard pulse protocols. Pulse times and voltages will vary according to which currents are being studied. […] Drug inhibition constants are calculated after generating a dose response curve by fitting with a logistic dose-response function (see equation (i) below). Typically, 5-20 cells per group are recorded from for heterologous expression experiments. Values are to be stated as mean±SEM with statistical significance set at p<0.05 (unpaired students t-test, ANOVA or the Mann-Whitney Rank Sum Test as appropriate).
Injected oocytes, bathed in bath solution containing 4 mM KCl, unless otherwise stated, are impaled with current and voltage electrodes and clamped at −80 mV holding potential using a Warner OC-725C amplifier. […] Drug concentrations are chosen to ensure inhibition values between 0 and 90-100% with at least 3 values within the linear portion of the curve so that the inhibition constant (Ki) can be calculated accurately by fitting with a logistic dose-response function (formula (i)) using the Origin 6.1 graph package.
Kv2.1 mutants were constructed using the QuickChange Multi Site-Directed Mutagenesis Kit (Stratagene, La Jolla, Calif.). […] For oocyte expression, Kv3.4 was in pBF1, Kv4.2 was in pRAT. cRNA transcripts were produced from SacII-linearized (Kv2.1), Mlullinearized (Kv3.4) and Not1-linearized (Kv4.2) DNA templates using the T3 (Kv2.1), SP6 (Kv3.4) and T7 (Kv4.2) mMessage mMachine kits (Ambion, Austin, Tex.). cRNA was quantified by spectrophotometry and its size integrity verified by gel electophoresis.

Kv3.4 = target: T2, Kv3.4 (UniProt Q63734); assay: TEVC of X. laevis oocytes expressing Kv3.4; type: cell-based; conditions: 1 mM, bath applied
T2 construct: IC50; other: Kv3.4, logistic dose response fit; effect on Kv3.4 currents; other: 1 mM, bath applied; slope of dose response curve; other: Kv3.4
T2 sequence (Q63734 1-625): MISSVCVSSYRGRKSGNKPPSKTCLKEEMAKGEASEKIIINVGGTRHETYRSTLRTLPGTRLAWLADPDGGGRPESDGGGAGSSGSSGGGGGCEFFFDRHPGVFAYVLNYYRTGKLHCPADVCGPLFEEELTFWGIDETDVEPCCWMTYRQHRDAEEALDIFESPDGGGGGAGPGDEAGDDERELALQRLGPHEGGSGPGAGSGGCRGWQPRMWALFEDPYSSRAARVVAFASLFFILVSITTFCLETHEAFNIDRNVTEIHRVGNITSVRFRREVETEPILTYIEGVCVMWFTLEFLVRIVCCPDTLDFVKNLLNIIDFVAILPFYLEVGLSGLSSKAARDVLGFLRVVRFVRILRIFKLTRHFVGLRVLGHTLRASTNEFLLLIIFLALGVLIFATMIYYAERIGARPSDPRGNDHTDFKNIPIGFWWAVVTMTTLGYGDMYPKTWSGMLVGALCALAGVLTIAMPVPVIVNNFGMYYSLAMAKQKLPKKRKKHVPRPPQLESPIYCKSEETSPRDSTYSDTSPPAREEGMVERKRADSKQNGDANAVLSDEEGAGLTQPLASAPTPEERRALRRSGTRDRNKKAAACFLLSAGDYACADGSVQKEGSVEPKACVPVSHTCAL
Text: Kv2.1 mutants were constructed using the QuickChange Multi Site-Directed Mutagenesis Kit (Stratagene, La Jolla, Calif.). […] For oocyte expression, Kv3.4 was in pBF1, Kv4.2 was in pRAT. cRNA transcripts were produced from SacII-linearized (Kv2.1), Mlullinearized (Kv3.4) and Not1-linearized (Kv4.2) DNA templates using the T3 (Kv2.1), SP6 (Kv3.4) and T7 (Kv4.2) mMessage mMachine kits (Ambion, Austin, Tex.). cRNA was quantified by spectrophotometry and its size integrity verified by gel electophoresis. Defolliculated stage V and VI Xenopus laevis oocytes (purchased from Nasco, Grand Island, N.Y.) were injected with 5 ng of cRNA encoding Kv2.1, Kv3.4 or Kv4.2. Chinese Hamster Ovary (CHO) cells were transfected with 0.25 μg Kv2.1 cDNA, 2 μg blank plasmid and 2 μg Green fluorescent Protein in pBOB using Supetfect transfection reagent (Qiagen) 24 hours before whole-cell voltage clamp studies.
Oocytes were bathed in a small-volume Warner oocyte bath and viewed with a Fisher dissection microscope. Bath solution for whole-cell oocyte recordings was (in mM): 96 NaCl, 4 KCl, 0.7 MgCl2, 1 CaCl2, 10 HEPES (pH 7.4); whole-cell oocyte TEVC pipettes were of 0.2-2 M resistance when filled with 3 M KCl. Experiments were performed 24-48 hours after cRNA injection. For assessment of current-voltage relationships in the absence or presence of dabco derivatives, oocytes were held at −80 mV, stepped for 2 seconds at voltages between −80 mV and +60 mV in 20 mV steps (Kv2.1) or between −80 and +50 mV in 10 mV steps (Kv3.4), then held for 500 ms at −40 mV before returning to the holding potential. For assessment of block during wash-in of dabco derivatives at a single voltage, oocytes were held at −80 mV, and repetitively stepped to 0 mV for 2 s with an interpulse interval of 10 s or 60 s as indicated. A range of concentrations of dabco or dabco derivatives were washed in via the bath solution during repetitive single-voltage pulses (after an initial period of 5 pulses with control solution to ensure current stabilization) until equilibrium block was achieved, to establish dose-responses. […] Washout was performed after the highest concentration of blocker was washed in. In cases where washout was achieved, only those recordings in which current returned to within 10% of original current level were used for construction of dose-response curves. […] As controls for this protection analysis, JC638.2a or MTSET were washed in alone until equilibrium block, then washed out.
Data analysis: Current-voltage relationships were obtained by measuring peak current during depolarizing pulses. Inhibition constants for DABCO blockers were calculated after generating a dose response curve by fitting with a logistic dose-response function y=A2+[A1−A2/1+(x/x0)^p], where A1 is the maximum response plateau, A2 is the minimum response plateau, x is drug concentrator, x0 is the IC50, and p the Hill slope. Data analysis was performed using […] 9 (Axon Instruments, Foster City, Calif.) and tabulated in Excel 5.0. Graphs were generated using Origin 6.1. Data are expressed as mean±SEM, with n specifying the number of independent experiments. Statistical significance was assessed by one-way ANOVA with p<0.05 being indicative of significance.

T1 sequence (P15387 whole entry): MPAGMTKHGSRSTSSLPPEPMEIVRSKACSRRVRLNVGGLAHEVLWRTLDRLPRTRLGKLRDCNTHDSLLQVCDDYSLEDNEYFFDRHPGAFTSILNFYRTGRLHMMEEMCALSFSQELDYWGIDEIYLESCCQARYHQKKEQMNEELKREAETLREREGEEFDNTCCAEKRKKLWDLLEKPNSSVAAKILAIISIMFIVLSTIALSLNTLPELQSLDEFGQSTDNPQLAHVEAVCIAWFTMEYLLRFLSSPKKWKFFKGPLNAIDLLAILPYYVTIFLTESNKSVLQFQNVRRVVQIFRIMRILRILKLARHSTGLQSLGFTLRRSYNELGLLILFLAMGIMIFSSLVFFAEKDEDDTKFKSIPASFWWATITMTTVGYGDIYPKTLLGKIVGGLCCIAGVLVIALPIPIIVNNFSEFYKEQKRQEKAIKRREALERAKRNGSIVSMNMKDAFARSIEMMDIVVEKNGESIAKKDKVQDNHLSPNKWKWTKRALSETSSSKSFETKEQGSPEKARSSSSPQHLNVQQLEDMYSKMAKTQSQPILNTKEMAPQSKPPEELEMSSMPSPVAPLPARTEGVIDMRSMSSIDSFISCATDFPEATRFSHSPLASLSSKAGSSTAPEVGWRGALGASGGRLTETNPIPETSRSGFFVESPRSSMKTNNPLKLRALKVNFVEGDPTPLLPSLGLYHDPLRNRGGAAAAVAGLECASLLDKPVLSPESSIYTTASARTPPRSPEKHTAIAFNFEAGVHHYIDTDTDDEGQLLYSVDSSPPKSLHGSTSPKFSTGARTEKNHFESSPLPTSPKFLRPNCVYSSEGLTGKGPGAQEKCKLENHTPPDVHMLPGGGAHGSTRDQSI

SMILES | effect on Kv2.1 currents (Kv2.1) | effect on Kv3.4 currents (Kv3.4) | effect on Kv2.1 current during wash-in (Kv2.1; 250 μM TG28, 0 mV) | Kv2.1 current level after washout relative to pre-drug current (Kv2.1; 250 μM TG28 washed out, on average)
C1CN2CCN1CC2 [DABCO, 1,4-diazabicyclo[2.2.2]octane, reference compound] | no effects | no effects | – | –
C(CCCCCC[N+]12CCN(CC1)CC2)CCCCC[N+]12CCN(CC1)CC2 [TG28, 1,12-[bis(4-aza-1-azoniabicyclo[2.2.2]octanyl)]dodecane] | block | – | rapid reduction of current (block) followed by slow, partial restoration of current (partial opening) | two-fold larger than the pre-drug current
